Laboratory results reported in patent US8734775B2, “Chemokine derived peptides that bind with chemokine receptor CXCR3 and uses for chronic wound and angiogenesis inhibition treatments” (University of Pittsburgh, priority 2011, dated 2014).

Key:
[1] = tested on: HMEC-1 cells transfected with CXCR3 siRNA; experiment: Scratch assay in cells transfected with CXCR3 siRNA; assay type: cell-based, human; conditions: CXCR3 knockdown; procedure of Experiment 2
Protocol: In the various experiments described below, to the extent not otherwise noted, CXCR3 siRNA transfection was preformed according to the procedure as previously described by Koh et al. (“Methods in Enzymology,” 2008, vol 443, p. 84), and summarized briefly as follows. HMEC-1 cells were plated in 6 well tissue culture plate at 4.0×10^5 cells/well in complete MCDB131 media and incubated overnight. The cells were ˜75% confluent. The media was removed and replaced with serum free Opti-Mem and incubated for 30 minutes. Dharmafect #4 was added to Opti-Mem to a final concentration of 2.5% (final volume […]) then incubated for 5 minutes at room temp. In parallel, CXCR3 siRNA was diluted in Opti-Mem to a final concentration of […] then incubated for 5 minutes at room temp. CXCR3 siRNA was a pool of equal concentration from Sigma and Santa Cruz. The Dharmafect solution was added to the CXCR3 siRNA pool and incubated for 20 minutes at room temp. […]
To determine whether IP-10dp inhibits endothelial cell motility, a conventional “scratch assay” was performed. […] Images were taken at time zero and 24 hours, and the relative distance traveled by the cells into the a cellular area was determined using MetaMorph. The HMEC-1 culture images were analyzed for the ability of the cells to migrate into a denuded area over a 24 hour period in the presence or absence of VEGF165. […]

HMEC-1 cells = experiment: Scratch assay of endothelial cell motility; assay type: cell-based, human; conditions: 24 hours
Protocol: To determine whether IP-10dp inhibits endothelial cell motility, a conventional “scratch assay” was performed. ELR-negative chemokines, such as IP-10, inhibit fibroblast and endothelial cell motility. IP-10 has been shown in prior literature to inhibit HMEC-1 cells' motility in the presence of angiogenic growth factors VEGF165 and bFGF. Thus, a scratch assay comparison was conducted to examine whether, and to what extent, IP-10dp could mimic the inhibitory effects of the full length IP-10. HMEC-1 cells were plated at 2.5×10^5 cells/well in 12 well culture plates and grown to 80 to 85% confluence and quiesced in 0.5% dialyzed fetal bovine serum for 24 hours at 37° C. in 5% CO2. The cells were washed one time with PBS and then incubated in 0.5% dialyzed MDCB 131 media for 24 hours at 37° C. in 5% CO2. The cultures were scraped with a rubber policeman making a 1 mm wide denuded area. […] Images were taken at time zero and 24 hours, and the relative distance traveled by the cells into the a cellular area was determined using MetaMorph. The HMEC-1 culture images were analyzed for the ability of the cells to migrate into a denuded area over a 24 hour period in the presence or absence of VEGF165.

Sequence: PESKAIKNLLKAVSKEMSKRSP (IP-10dp; listed as Homo sapiens) [synthetic fragment of IP-10 comprising residues 78-98, the C-terminal α-helical domain]
- inhibition of VEGF-induced motility in CXCR3 siRNA-transfected cells [1]: unable to inhibit VEGF-induced motility
- inhibition of endothelial cell migration, excess over IP-10 (HMEC-1 cells; IP-10dp 10 μM vs IP-10 200 ng/ml): 10%
- inhibition of HMEC-1 cell motility (HMEC-1 cells; IP-10dp 10 μM, with and without VEGF (100 ng/ml)): inhibited motility
